Measured values taken from patent EP2926811A1, “ARTEMETHER-CONTAINING PHARMACEUTICAL COMPOSITION, PREPARATION, AND USE THEREOF” (Kunming Pharmaceutical Corp., priority 2012, dated 2014).
Where two headings read alike, the source gives them in different places.

Assays:
Assay type in all cases: cell-based
[1] = tested on: HL-60 cells; experiment: modified MTT method, proliferation of HL-60 cells; details: Homo sapiens, read-out: IC50 on the growth of HL-60 cells
Procedure: (§1) Five test concentrations 2, 10, 50, 250 and 500 µM were set for each of five derivatives of artemisinin, artemether drug substance, artemisinin, dihydroartemisinin, artesunate were dissolved with dimethyl sulfoxide (DMSO), while the lyophilized powder of artemether was dissolved with normal saline (N.S.), followed by addition of a certain amount of RPMI 1640 complete culture solution to formulate a high-concentration solution, and each of the low-concentration solutions was formulated by proportionate dilution from the high-concentration solution.
(§2) The concentrations of DMSO contained in the solutions at the two relatively high concentrations 500 and 250 µM for the artemether drug substance, artemisinin, dihydroartemisinin, artesunate, used as solvent controls, were formulated with […] culture solution, at which time the test concentrations of DMSO were 1% and 0.5%. The concentrations of the excipients contained in the solutions at the two relatively high concentrations 500 and 250 µM for the preparation of lyophilized powder of artemether were used as solvent controls.
(§3) The positive control was an anti-cancer drug adriamycin (ADM), which was set at three test concentrations (final concentrations) of 0.1, 1 and 10 µg/ml. To ADM stock solution (1 mg/ml) a certain amount of PRMI 1640 complete culture solution was added, to formulate a high-concentration solution, and each of the low-concentration solutions were formulated by proportionate dilutions from the high-concentration solution.
(§4) HL-60: (human promyelocytic leukemia cell line); K562 (human chronic myelocytic leukemia cell line); HT-29 (human colon cancer cell line); PC-3 (human prostate cancer cell line); A549 (human non-small cell lung cancer cell line); MKN-28 (human gastric cancer cell line); Hep2 (human laryngeal cancer cell line), all of which were purchased from Cell Bank of Shanghai Institutes for Biological Sciences, the Chinese Academy of Sciences.
(§5) Influence of the five test samples on the proliferation of 7 human tumor cell lines was determined via a modified MTT method.
(§6) Cells in logarithmic growth phase were taken, adjusted to a certain concentration and then added into a 96 well culture plate. After culture of adherent cells for a period until adherence, the test samples were added; and for suspension cells, the test samples were added after inoculation. 5 test concentrations 2, 10, 50, 250 and 500 µM were set, with 3 parallel wells for each concentration, 10 µl/well; the solvent controls were 0.5% and 1% of isovolumetric DMSO, and the positive controls was ADM at 3 concentrations 0.1, 1 and 10 µg/ml. The samples were loaded followed by culture for a period of time in an incubator at 37°C, 5% CO2, followed by addition of MTT (5 mg/ml) at 20 µl/well, and continued to be cultured for a period of time and added with a three-combined solution [10% SDS - 5% isobutanol - 0.012 mol/L HCl (W/V/V)]. After dissolving in uniformity, it was continued to be placed in the incubator at 37°C, 5% CO2 for a period of time, and the OD value of each well was determined under a wavelength of 570 nm with a microplate reader, according to which the results were calculated.
(§7) The cellular proliferation inhibition rate was calculated in accordance with the following equation: Inhibition rate (%) = (OD valuecontrol well-OD valuesample well)/OD valuecontrol well × 100% [formula]
(§8) When the inhibition rate of DMSO on cells was more than 15%, calculation was carried out using the following equation: Inhibition rate (%) = (OD valuesolvent group-OD valueadministered well)/OD valuesolvent group × 100% [formula]
(§9) The inhibition rate was calculated by using Microsoft Excel 2003, and median inhibitory concentration IC50 was calculated with a LOGIT method, which was used as an indicator for judging the inhibitory capability.

[2] = tested on: PC-3 cells; experiment: modified MTT method, proliferation of PC-3 cells; details: Homo sapiens, read-out: IC50 on the growth of PC-3 cells
Procedure: as §1, §2, §3, §4, §5, §6, §7, §8, §9

[3] = tested on: MKN-28 cells; experiment: modified MTT method, proliferation of MKN-28 cells; details: Homo sapiens, MKN-28, 72 h, secondary screening
Procedure: as §1, §2, §3, §4, §5, §6, §7, §8, §9
(§10) According to the results of preliminary screening, further experiments were adjusted such that more sensitive cell lines were screened out. […]

[4] = tested on: K562 cells; experiment: modified MTT method, proliferation of K562 cells; details: Homo sapiens, read-out: IC50 on the growth of K562 cells
Procedure: as §1, §2, §3, §4, §5, §6, §7, §8, §9

[5] = tested on: A549 cells; experiment: modified MTT method, proliferation of A549 cells; details: Homo sapiens, read-out: IC50 on the growth of A549 cells
Procedure: as §1, §2, §3, §4, §5, §6, §7, §8, §9

[6] = tested on: Hep2 cells; experiment: modified MTT method, proliferation of Hep2 cells; details: Homo sapiens, HEp-2, 72 h, secondary screening
Procedure: as §1, §2, §3, §4, §5, §6, §7, §8, §9, §10

[7] = tested on: HT-29 cells; experiment: modified MTT method, proliferation of HT-29 cells; details: Homo sapiens
Procedure: as §1, §2, §3, §4, §5, §6, §7, §8, §9, §10

IC50 ([1]; HL-60, 24 h, Batch 1, 24 h): > 1000 µM | IC50 ([1]; HL-60, 24 h, Batch 2, 24 h): 658 µM | IC50 ([1]; HL-60, 48 h, Batch 1, 48 h): > 1000 µM | IC50 ([1]; HL-60, 48 h, Batch 2, 48 h): 77.2 µM | IC50 ([1]; HL-60, 72 h, Batch 1, 72 h): > 1000 µM | IC50 ([1]; HL-60, 72 h, Batch 2, 72 h): 248 µM | IC50 ([2]; PC-3, 24 h, Batch 1, 24 h): > 1 mM | IC50 ([2]; PC-3, 24 h, Batch 2, 24 h): > 1 mM | IC50 ([2]; PC-3, 48 h, Batch 1, 48 h): > 1 mM | IC50 ([2]; PC-3, 48 h, Batch 2, 48 h): > 1 mM | IC50 ([2]; PC-3, 72 h, Batch 1, 72 h): > 1 mM | IC50 ([2]; PC-3, 72 h, Batch 2, 72 h): > 1 mM | IC50 ([3]; Average, read-out: IC50 on the growth of MKN-28 cells (72 h)): 402 µM | IC50 ([3]; Batch 1, read-out: IC50 on the growth of MKN-28 cells (72 h)): 27900 µM | IC50 ([3]; Batch 2, read-out: IC50 on the growth of MKN-28 cells (72 h)): 336 µM | IC50 ([3]; Batch 3, read-out: IC50 on the growth of MKN-28 cells (72 h)): 520 µM | IC50 ([4]; K562, 24 h, Batch 1, 24 h): > 1000 µM | IC50 ([4]; K562, 24 h, Batch 2, 24 h): > 1000 µM | IC50 ([4]; K562, 24 h, Batch 3, 24 h): 345 µM | IC50 ([4]; K562, 48 h, Batch 1, 48 h): > 1000 µM | IC50 ([4]; K562, 48 h, Batch 2, 48 h): > 1000 µM | IC50 ([4]; K562, 48 h, Batch 3, 48 h): 331 µM | IC50 ([4]; K562, 72 h, Batch 1, 72 h): > 1000 µM | IC50 ([4]; K562, 72 h, Batch 2, 72 h): 893 µM | IC50 ([4]; K562, 72 h, Batch 3, 72 h): 137 µM | IC50 ([5]; A549, 24 h, Batch 1, 24 h): > 1000 µM | IC50 ([5]; A549, 24 h, Batch 2, 24 h): 641 µM | IC50 ([5]; A549, 48 h, Batch 1, 48 h): > 1000 µM | IC50 ([5]; A549, 48 h, Batch 2, 48 h): > 1000 µM | IC50 ([5]; A549, 72 h, Batch 1, 72 h): > 1000 µM | IC50 ([5]; A549, 72 h, Batch 2, 72 h): 832 µM | IC50 ([7]; HT-29, 24 h, preliminary screening, Batch 1, 24 h, read-out: IC50 on the growth of HT-29 cells): > 1000 µM | IC50 ([7]; HT-29, 24 h, preliminary screening, Batch 2, 24 h, read-out: IC50 on the growth of HT-29 cells): > 1000 µM | IC50 ([7]; HT-29, 48 h, preliminary screening, Batch 1, 48 h, read-out: IC50 on the growth of HT-29 cells): > 1000 µM | IC50 ([7]; HT-29, 48 h, preliminary screening, Batch 2, 48 h, read-out: IC50 on the growth of HT-29 cells): > 1000 µM | IC50 ([7]; HT-29, 72 h, preliminary screening, Batch 1, 72 h, read-out: IC50 on the growth of HT-29 cells): 318 µM | IC50 ([7]; HT-29, 72 h, preliminary screening, Batch 2, 72 h, read-out: IC50 on the growth of HT-29 cells): 579 µM | IC50 ([7]; HT-29, 72 h, secondary screening, 72 h, Batch 1, read-out: IC50 on the growth of HT-29 cells (72 h)): 214 µM | IC50 ([7]; HT-29, 72 h, secondary screening, 72 h, Batch 2, read-out: IC50 on the growth of HT-29 cells (72 h)): 263 µM | IC50 ([7]; HT-29, 72 h, secondary screening, 72 h, Batch 3, read-out: IC50 on the growth of HT-29 cells (72 h)): 245 µM | IC50 ([7]; HT-29, 72 h, secondary screening, 72 h, average, read-out: IC50 on the growth of HT-29 cells (72 h)): 255 µM
SMILES: CO[C@H]1O[C@@H]2O[C@@]3(C)CC[C@H]4[C@H](C)CC[C@@H]([C@H]1C)[C@@]24OO3 [artemether drug substance, (3R,5αS,6R,8αS,9R,10S,12R,12αR)-decahydro-10-methoxy-3,6,9-trimethyl-3,12-epoxy-12H-pyrano[4,3-j]-1,2-benzodioxepin]
IC50 ([6]; Batch 1, read-out: IC50 on the growth of Hep2 cells (72 h)): 0.412 mM | IC50 ([6]; Batch 2, read-out: IC50 on the growth of Hep2 cells (72 h)): > 1 mM | IC50 ([6]; Batch 3, read-out: IC50 on the growth of Hep2 cells (72 h)): > 1 mM | IC50 ([6]; average, read-out: IC50 on the growth of Hep2 cells (72 h)): > 1 mM
